A short description of data set [1]: Stability of C15 in homogenates of frozen and fresh human skin. It counts as in vitro ADME. The procedure: An initial study was performed comparing stability of human C15 versus Mouse C15. Homogenates of frozen and fresh human skin were prepared to evaluate the degradation of C15 in skin. Frozen or fresh human skin were separately minced and homogenized in 3 ml water and the supernatant isolated. Supernatant was mixed with solutions of mouse or human C15 to yield a 0.5 mg/ml C15 solution. Each solution was incubated at 37° C. and samples were taken at 0, 1, 2 and 24 hours for analysis of C15 (FIG. 3).

The test system of data set [2] is K5.Stat3C recombinant mice. The data set can be described thus: K5.Stat3C mouse model of psoriasis (TPA induced lesions). The settings on record: expected. Format: in vivo. The protocol:
In this example, the therapeutic activity of a human chemerin C15 peptide is tested in a mouse model of psoriasis. K5.Stat3C recombinant mice resemble human psoriasis based on clinical, histological, immunophenotypic, and biochemical criteria used to evaluate animal models of psoriasis. The K5.Stat3C mice constitutively express activated […] in keritinocytes and epidermal hyperplasia upon stimulation with 12-0-tetradecanoylphorbol-13-acetate (TPA) topical treatment.
In an exemplary protocol, mice are treated topically on the ear with TPA (e.g. 3.4 nmol TPA in acetone) or acetone control to induce skin lesions 3 times per week for 4-8 weeks. Real-time PCR in skin samples is used to confirm upregulation of cytokine expression, including IL-23, IL012, TNF-α, IL-β, and/or IL-6. Following induction of skin lesions, formulations comprising the human chemerin C15 peptide or vehicle control are applied topically to the skin lesions daily for 6-12 days. Improvement in the lesions is assessed daily.

Data set [3] concerns IFNγ/LPS stimulated human macrophages. The data set is described as follows: Cytokine secretion by IFNγ/LPS stimulated human macrophages (Luminex). The following applies: 16 hours post-stimulation. Format: cell-based.
The mark [4] stands for this setting: after 24 hours, 37° C., 0.5 mg/ml.

Peptide text beside a SMILES is read from it.

For the compound `C[C@H](N)C(=O)NCC(=O)N[C@@H](CCC(=O)O)C(=O)N[C@@H](CC(=O)O)C(=O)N1CCC[C@H]1C(=O)N[C@@H](Cc1c[nH]cn1)C(=O)N[C@@H](CO)C(=O)N[C@@H](Cc1ccccc1)C(=O)N[C@@H](Cc1ccc(O)cc1)C(=O)N[C@@H](Cc1ccccc1)C(=O)N1CCC[C@H]1C(=O)NCC(=O)N[C@@H](CCC(N)=O)C(=O)N[C@@H](Cc1ccccc1)C(=O)N[C@@H](C)C(=O)O` [C15 (human)] (H-AGEDPHSFYFPGQFA-OH; N-terminus and C-terminus assumed), in data set [1] (setting [4]), the “C15 degradation in homogenate from fresh skin” value worked out at 98% and the “C15 degradation in homogenate from frozen skin” value was found to be 25%. In addition, in data set [1] (human vs mouse C15), the “relative stability in skin homogenate” value is “more stable than mouse C15”. The “cytokine expression in the psoriatic lesions” value in data set [2] (topical daily for 6-12 days) is recorded as “decreased cytokine expression”. Besides, in data set [2] (visual inspection and histological examination), the “psoriatic phenotype of the epidermis” value is given as “improvement in the psoriatic phenotype of the epidermis”. In data set [3] (1 pM), the “inhibition of human macrophage secretion of IL-1β” value was “approximately 45%” and the “inhibition of human macrophage secretion of RANTES” value is reported as approximately 65%. For the same compound, in data set [3], the “inhibition of human macrophage secretion of IL-12p40” value was “approximately 55%”.

Values taken from patent US20140349943A1, “TOPICAL FORMULATIONS OF CHEMERIN C15 PEPTIDES FOR THE TREATMENT OF DERMATOLOGICAL CONDITIONS” (priority 2011, published 2014).
